{"source": "patent US20060019241A1", "about": "“Na+ and CI-coupled transport system for endogenous opioid peptides” (priority 2004, published 2006)", "type_in_all_cases": "cell-based, human", "key": {"[1]": {"tested_on": "enkephalin/endorphin transport system in SK—N—SH cells", "test": "[^3H]deltorphin II uptake in SK—N—SH cells, effect of peptides and amino acids", "settings": "for Deltorphin II uptake / effect on [^3H]deltorphin II uptake (in words): NaCl, 30 minutes; for Deltorphin II uptake: compound 1 mM; for Ki: read-out: Ki for inhibition of deltorphin II uptake, dose-response studies; for effect on [^3H]deltorphin II uptake (in words): test substance 1 mM; for IC50: read-out: affinity for the transport system (concentration-dependent inhibition of [^3H]deltorphin II uptake), [^3H]deltorphin II 25 nM", "method": "(§1) Uptake measurements in control ARPE-19 cells and Tat-ARPE-19 cells. Control ARPE-19 cells and Tat-ARPE-19 cells were maintained in 75-cm^2 culture flasks in Dulbecco's modified Eagle's medium/F12 medium (1:1, volume/volume (v/v)) in the presence of fetal bovine serum (10%) and G418 (100 μg/ml). For uptake measurements, cells were released by trypsin treatment and seeded in 24-well culture plates at an initial density of 0.1×10^6 cells/well. The culture medium was replaced with fresh medium on the second day following the initial seeding and uptake measurements were made on the third day. […] After incubation at 37° C. for a desired time, uptake was terminated by the removal of the medium and washing of the cells with ice-cold uptake buffer. The cells were then dissolved in 1% SDS in 0.2 M NaOH and used for measurement of radioactivity. The uptake buffer in most experiments was 25 mM Hepes/Tris (pH 7.5), containing 140 mM NaCl, 5.4 mM KCl, 1.8 mM CaCl2, 0.8 mM MgSO4 and 5 mM glucose.\nSince enkephalins and endorphins are relevant to pain perception and to further provide evidence in support of a role for the transport system in opioidergic neurotransmission, the human neuronal cell line SK—N—SH was tested for expression of the transport system. […] Unless otherwise specified, procedures are as detailed in Example 1.\nThe concentration of enkephalins and dynorphins was 1 mM.\nFinally, the relative affinity of various enkephalins and dynorphins for the transport system in SK—N—SH cells was determined.\nTo the further characterize the opioid transport of the present invention, various specific peptides that act as positive modulators of the enkephalin/endorphin transport system in the human neuronal cell line SK—N—SH were identified. Unless otherwise specified, procedures are as detailed in Example 1. […] Uptake was measured in the presence of NaCl for 30 minutes. The concentration of the dipeptides was 1 mM.\nUptake was measured in the presence of NaCl for 30 minutes. The concentration of the tripeptides was 1 mM.\nUnless otherwise specified, procedures are as described in more detail in Example 1.\nThe dose-response relationship for the inhibition of the enkephalin/endorphin transport system by L-Lysine and its methyl and ethyl esters is shown in FIG. 15."}, "[2]": {"tested_on": "deltorphin II transport system in Tat-ARPE-19 cells", "test": "Inhibition of [^3H]deltorphin II uptake in Tat-ARPE-19 cells", "settings": "for [^3H] Deltorphin II uptake / [^3H] Deltorphin II uptake (%) of control: Tat-ARPE-19 cells, 30 minutes, NaCl, inhibitor 1 mM; for [^3H] Deltorphin II uptake / [^3H] Deltorphin II uptake (%) of control / competition with deltorphin for the uptake process (in words): [^3H]deltorphin II 50 nM; for [^3H] Deltorphin II uptake (%) of control: control = 100; for competition with deltorphin for the uptake process (in words): Tat-ARPE-19 / RPE cells, compound 1 mM", "from_the_text": "(§2) Stable transfection of ARPE-19 cells with pcDNA-Tat cDNA. The pGEM2-Tat cDNA construct contained as the insert a 295 basepair (bp) fragment encoding the first exon of HIV-1 Tat gene joined to a 145 bp pET3A transcription terminator. The entire insert (440 bp) was removed from the construct by digestion with PstI and EcoRI and ligated into the multiple cloning region of pcDNA3.1 (−) vector at PstI/EcoRI site so that the insert is downstream of the cytomegalovirus (CMV) promoter. The resultant construct was sequenced to confirm the orientation of the insert. This construct was electroporated into ARPE-19 cells and the stably transfected cell clones were isolated in the presence of Geneticin (G418). To serve as a control, empty pcDNA3.1 vector was electroporated into ARPE-19 cells in an identical manner and the clones harboring the vector were selected by G418 resistance.\nas §1\nWhen the influence of Na^+ on the uptake process was investigated, the concentration of NaCl in the uptake buffer was adjusted, as desired, by isoosmotically replacing NaCl with N-methyl-D-glucamine chloride. To assess the influence of Cl^− on the uptake process, the composition of the uptake medium was modified by replacing KCl and CaCl2 with equimolar concentrations of potassium gluconate and calcium gluconate and the concentration of NaCl was adjusted, as desired, by iso-osmotically replacing NaCl with sodium gluconate. Saturation kinetics were analysed by fitting the data to the Michaelis-Menten equation. The Michaelis-Menten constant, Kt, was calculated by non-linear regression analysis and then confirmed by linear regression. Na^+- and Cl^−-activation kinetics were analyzed by fitting the data to the Hill equation and the Hill coefficients for Na^+ and Cl^− (h; the number of Na^+ and Cl^− ions involved in the activation process) and the K0.5 values (the concentration of Na^+ and Cl^−-needed for half-maximal activation) were determined from the analysis. Again, these constants were first calculated by non-linear regression methods and subsequently confirmed by linear regression methods. Experiments were repeated three times in duplicate and the results are given as means±S.E.M.\n(§3) Substrate specificity of the deltorphin transport system. […] These peptides consisted of 4-13 amino acids.\nRelative affinities of endogenous opioid peptides for the transport system."}, "[3]": {"tested_on": "deltorphin II transport system in control ARPE-19 cells", "test": "Inhibition of [^3H]deltorphin II uptake in control ARPE-19 cells", "settings": "[^3H]deltorphin II 50 nM, 30 minutes, NaCl, peptide/antagonist 1 mM; for [^3H] Deltorphin II uptake: control ARPE-19 cells (pcDNA vector alone); for [^3H] Deltorphin II uptake (%) of control: control ARPE-19 cells, control = 100", "from_the_text": "as §2, §1, §3"}}, "note": "“Also recorded” adds a separate entry of the source."}
{"compound": "CCOC(=O)[C@@H](N)CCCCN", "note": "[Lys-ethyl ester, L-lysylethyl ester]", "values": [{"measurement": "Deltorphin II uptake", "setting": "[1]; [^3H]deltorphin II 25 nM", "result": "0.55 ± 0.05", "unit": "pmol/30 min/mg protein"}, {"measurement": "Ki", "setting": "[1]", "result": "154 ± 34", "unit": "µM"}]}
{"compound": "Try-Gly-Gly", "values": [{"measurement": "effect on [^3H]deltorphin II uptake (in words)", "setting": "[1]; [^3H]deltorphin II 25 nM", "result": "ability to stimulate the uptake"}]}
{"compound": "YGGFLR [Dynorphin A (1-6), Tyr-Gly-Gly-Phe-Leu-Arg]", "values": [{"measurement": "[^3H] Deltorphin II uptake", "setting": "[2]", "result": "0.12 ± 0.00", "unit": "pmol/mg protein/30 min"}, {"measurement": "[^3H] Deltorphin II uptake (%) of control", "setting": "[2]", "result": 2, "unit": "%"}, {"measurement": "[^3H] Deltorphin II uptake", "setting": "[3]", "result": "0.06 ± 0.001", "unit": "pmol/mg protein/30 min"}, {"measurement": "[^3H] Deltorphin II uptake (%) of control", "setting": "[3]", "result": 5, "unit": "%"}, {"measurement": "IC50", "setting": "[1]", "result": "3.5 ± 0.4", "unit": "µM"}]}
{"compound": "COC(=O)[C@@H](N)CCCCN", "note": "[L-Lys-methyl ester, L-lysylmethyl ester]", "values": [{"measurement": "Deltorphin II uptake", "setting": "[1]; [^3H]deltorphin II 25 nM", "result": "0.28 ± 0.01", "unit": "pmol/30 min/mg protein"}, {"measurement": "Ki", "setting": "[1]", "result": "169 ± 9", "unit": "µM"}]}
{"compound": "C[C@@H](N)C(=O)O", "note": "[D-alanine]", "values": [{"measurement": "effect on [^3H]deltorphin II uptake (in words)", "setting": "[1]; [^3H]deltorphin II 25 nM", "result": "significant inhibition"}]}
{"compound": "Gly-Gly-Ile", "values": [{"measurement": "influence on kinetic parameters of deltorphin II uptake", "setting": "[1]; 1 mM Gly-Gly-Ile", "result": "increasing the maximal velocity of the system without affecting the affinity for its substrate"}, {"measurement": "effect on [^3H]deltorphin II uptake (in words)", "setting": "[1]; [^3H]deltorphin II 25 nM", "result": "ability to stimulate the uptake; also recorded: stimulated"}, {"measurement": "stimulation of deltorphin II uptake", "setting": "[1]; [^3H]deltorphin II 25 nM, peptide 1 mM", "result": "6- to 8 fold"}]}
{"compound": "Tyr-Gly-Gly-Phe-Leu [Leu-enkephalin]", "values": [{"measurement": "competition with deltorphin for the uptake process (in words)", "setting": "[2]", "result": "marked inhibition"}, {"measurement": "[^3H] Deltorphin II uptake", "setting": "[2]", "result": "0.15 ± 0.01", "unit": "pmol/mg protein/30 min"}, {"measurement": "[^3H] Deltorphin II uptake (%) of control", "setting": "[2]", "result": 2, "unit": "%"}, {"measurement": "IC50", "setting": "[1]", "result": "7.8 ± 1.2", "unit": "µM"}]}
{"compound": "C[N+](C)(C)CCCC[C@H](N)C(=O)O", "note": "[Trimethyl-L-Lys]", "values": [{"measurement": "Deltorphin II uptake", "setting": "[1]; [^3H]deltorphin II 25 nM", "result": "2.39 ± 0.11", "unit": "pmol/30 min/mg protein"}]}
{"compound": "CC(=N)NCCCC[C@H](N)C(=O)O", "note": "[L-NIL]", "values": [{"measurement": "Deltorphin II uptake", "setting": "[1]; [^3H]deltorphin II 25 nM", "result": "2.40 ± 0.15", "unit": "pmol/30 min/mg protein"}]}
{"compound": "NCC(=O)CCC(=O)O", "note": "[δ-amino-levulinic acid]", "values": [{"measurement": "Deltorphin II uptake", "setting": "[1]; [^3H]deltorphin II 25 nM", "result": "2.68 ± 0.18", "unit": "pmol/30 min/mg protein"}]}
{"compound": "Gly-Gly-Gly", "values": [{"measurement": "competition with deltorphin for the uptake process (in words)", "setting": "[2]", "result": "did not compete; also recorded: significant stimulation"}, {"measurement": "[^3H] Deltorphin II uptake", "setting": "[2]", "result": "9.68 ± 0.39", "unit": "pmol/mg protein/30 min"}, {"measurement": "[^3H] Deltorphin II uptake (%) of control", "setting": "[2]", "result": 125, "unit": "%"}, {"measurement": "effect on [^3H]deltorphin II uptake (in words)", "setting": "[1]; [^3H]deltorphin II 25 nM", "result": "ability to stimulate the uptake"}]}
{"compound": "Glu-Gly-Phe", "values": [{"measurement": "effect on [^3H]deltorphin II uptake (in words)", "setting": "[1]; [^3H]deltorphin II 25 nM", "result": "ability to stimulate the uptake"}]}
{"compound": "NC(=O)NCCC[C@H](N)C(=O)O", "note": "[L-Citrulline]", "values": [{"measurement": "Deltorphin II uptake", "setting": "[1]; [^3H]deltorphin II 25 nM", "result": "2.18 ± 0.06", "unit": "pmol/30 min/mg protein"}]}
{"compound": "YGGFMRF [[Arg^6, Phe^7] Met-enkephalin, Tyr-Gly-Gly-Phe-Met-Arg-Phe]", "values": [{"measurement": "[^3H] Deltorphin II uptake", "setting": "[2]", "result": "0.11 ± 0.01", "unit": "pmol/mg protein/30 min"}, {"measurement": "[^3H] Deltorphin II uptake (%) of control", "setting": "[2]", "result": 1, "unit": "%"}, {"measurement": "[^3H] Deltorphin II uptake", "setting": "[3]", "result": "0.05 ± 0.001", "unit": "pmol/mg protein/30 min"}, {"measurement": "[^3H] Deltorphin II uptake (%) of control", "setting": "[3]", "result": 4, "unit": "%"}]}
{"compound": "COC(=O)[C@H](CCCCN)NC(C)=O", "note": "[α-N-acetyl-L-Lys-methyl ester]", "values": [{"measurement": "Deltorphin II uptake", "setting": "[1]; [^3H]deltorphin II 25 nM", "result": "2.37 ± 0.20", "unit": "pmol/30 min/mg protein"}]}
{"compound": "N=C(N)NCCC[C@H](N)C(=O)O", "note": "[L-Arg, L-arginine]", "values": [{"measurement": "Deltorphin II uptake", "setting": "[1]; [^3H]deltorphin II 25 nM", "result": "1.46 ± 0.12", "unit": "pmol/30 min/mg protein"}, {"measurement": "effect on [^3H]deltorphin II uptake (in words)", "setting": "[1]; [^3H]deltorphin II 25 nM", "result": "significant inhibition"}]}
{"compound": "Tyr-Gly-Gly-Phe-Leu-Arg-Arg-IIe-Arg-Pro-Lys-Leu-Lys (YGGFLRRIRPKLK) [Dynorphin A (1-13)]", "values": [{"measurement": "fold higher affinity than the shorter dynorphins (six to nine amino acids)", "setting": "[2]; RPE cells", "result": "~10", "unit": "fold"}, {"measurement": "[^3H] Deltorphin II uptake", "setting": "[2]", "result": "0.07 ± 0.01", "unit": "pmol/mg protein/30 min"}, {"measurement": "[^3H] Deltorphin II uptake (%) of control", "setting": "[2]", "result": 1, "unit": "%"}, {"measurement": "[^3H] Deltorphin II uptake", "setting": "[3]", "result": "0.04 ± 0.001", "unit": "pmol/mg protein/30 min"}, {"measurement": "[^3H] Deltorphin II uptake (%) of control", "setting": "[3]", "result": 4, "unit": "%"}, {"measurement": "IC50", "setting": "[1]", "result": "0.15 ± 0.01", "unit": "µM"}]}
{"compound": "NCCCC(=O)O", "note": "[GABA]", "values": [{"measurement": "Deltorphin II uptake", "setting": "[1]; [^3H]deltorphin II 25 nM", "result": "2.62 ± 0.13", "unit": "pmol/30 min/mg protein"}]}
